Assay results: ChEMBL document CHEMBL1151027, “Inhibition of human immunodeficiency virus-1 protease by a C2-symmetrical phosphinic acid amide” (Bioorg Med Chem Lett, 1994)

Columns and labels:
[1] = target: Human immunodeficiency virus type 1 protease (Human immunodeficiency virus 1, UniProt Q72874); test: Inhibitory activity if the compound was determined against HIV protease
[2] = (§1) Effective concentration required to inhibit HIV replication in peripheral blood mononuclear cells (PBL); assay type: functional, Homo sapiens
[3] = as §1; assay type: functional; details: Homo sapiens

SMILES | IC50 [1] [µM] | EC50 ([2]; Homo sapiens) [µM] | EC50 [2] [µM] | EC50 [3] [µM]
CC(C)[C@H](NC(=O)[C@H](Cc1cccc2ccccc12)CS(=O)(=O)C(C)(C)C)C(=O)N[C@H](Cc1ccccc1)P(=O)(O)[C@@H](Cc1ccccc1)NC(=O)[C@@H](NC(=O)[C@H](Cc1cccc2ccccc12)CS(=O)(=O)C(C)(C)C)C(C)C | 0.085 | > 10 | – | –
CC(C)[C@H](NC(=O)[C@H](Cc1cccc2ccccc12)CS(=O)(=O)C(C)(C)C)C(=O)N[C@H](Cc1ccccc1)P(N)(=O)[C@@H](Cc1ccccc1)NC(=O)[C@@H](NC(=O)[C@H](Cc1cccc2ccccc12)CS(=O)(=O)C(C)(C)C)C(C)C | 0.001 | – | 0.1 | –
CC(C)[C@H](NC(=O)[C@H](Cc1cccc2ccccc12)CS(=O)(=O)C(C)(C)C)C(=O)NCP(=O)(CNC(=O)[C@@H](NC(=O)[C@H](Cc1cccc2ccccc12)CS(=O)(=O)C(C)(C)C)C(C)C)NN | 0.0085 | > 10 | – | –
CC(C)[C@H](NC(=O)[C@H](Cc1cccc2ccccc12)CS(=O)(=O)C(C)(C)C)C(=O)NC(Cc1ccccc1)P(=O)(O)C(Cc1ccccc1)NC(=O)[C@@H](NC(=O)[C@H](Cc1cccc2ccccc12)CS(=O)(=O)C(C)(C)C)C(C)C (single isomer, unassigned) | 0.0005 | – | – | > 10
CC(C)[C@H](NC(=O)[C@H](Cc1cccc2ccccc12)CS(=O)(=O)C(C)(C)C)C(=O)NC(Cc1ccccc1)P(N)(=O)C(Cc1ccccc1)NC(=O)[C@@H](NC(=O)[C@H](Cc1cccc2ccccc12)CS(=O)(=O)C(C)(C)C)C(C)C (single isomer, unassigned) | 0.25 | – | > 10 | –
CC(C)[C@H](NC(=O)[C@H](Cc1cccc2ccccc12)CS(=O)(=O)C(C)(C)C)C(=O)NCP(N)(=O)CNC(=O)[C@@H](NC(=O)[C@H](Cc1cccc2ccccc12)CS(=O)(=O)C(C)(C)C)C(C)C | 0.0055 | > 10 | – | –
COP(=O)(CNC(=O)[C@@H](NC(=O)[C@H](Cc1cccc2ccccc12)CS(=O)(=O)C(C)(C)C)C(C)C)CNC(=O)[C@@H](NC(=O)[C@H](Cc1cccc2ccccc12)CS(=O)(=O)C(C)(C)C)C(C)C | 0.95 | > 10 | – | –
CC(C)[C@H](NC(=O)[C@H](Cc1cccc2ccccc12)CS(=O)(=O)C(C)(C)C)C(=O)NCP(=O)(O)CNC(=O)[C@@H](NC(=O)[C@H](Cc1cccc2ccccc12)CS(=O)(=O)C(C)(C)C)C(C)C | 0.0011 | > 10 | – | –
